Test results reported in US20250154686A1, “COMPOUND LIBRARY” (CHUGAI SEIYAKU KABUSHIKI KAISHA, priority 2021, published 2025).

Biological target: T1, Bcl-2 protein (Recombinant Human Bcl-2 Protein) (Homo sapiens, UniProt P10415)
T1 construct: purchased Novus Biologicals NBP2-34889
Assay: AS-MS evaluation of binding of the Example 4 mixture library (1200 compounds/well) to Bcl-2, ASMS ratio (%)
Conditions: Bcl-2 protein; for ASMS ratio (%) n = 1: replicate n = 1; for ASMS ratio (%) n = 2: replicate n = 2
Description: DMSO solutions (prepared into approximately 0.58 mM based on calculation from the average molecular weight of each mixture) of 12 types of mixtures that could each contain 100 compounds, i.e., mixAI-B4J-01, mixAI-B1M-01, mixAI-B1K-01, mixAI-BIO-01, mixAI-B1A-01, mixAI-B3A-01, mixAI-B21-01, mixAI-B2L-01, mixAI-B2N-01, mixAI-B2A-01, mixAI-B2Q-01, and mixAI-B2R-01, shown in Table AI-03-B4J-01, Table AI-03-B1M-01, Table AI-03-B1K-01, Table AI-03-B10-01, Table AI-03-B1A-01, Table AI-03-B3A-01, Table AI-03-B21-01, Table AI-03-B2L-01, Table AI-03-B2N-01, Table AI-03-B2A-01, Table AI-03-B2Q-01, and Table AI-03-B2R-01 described in Example 4, were respectively dispensed to a total of 12 wells of MICROPLATE, 96-well, PP, V-BOTTOM (Greiner Bio-One International GmbH, 651201). 70 nL each from the 12 wells was collected into any one well using LABCYTE ECHO® 555 acoustic dispensing system (Beckman Coulter, Inc.) to prepare a sample solution in a mixed state of 1200 compounds (the presence of 1152 compounds was already identified when the mixtures were prepared in Example 4). Further, Bcl-2 protein (Novus Biologicals, NBP2-34889, Recombinant Human Bcl-2 Protein, Lot E60145051) (19.2 μL) prepared at 20.9 μM in advance using a Tris-HCl buffer (25 mM Tris-HCl, pH 7.4, 150 mM NaCl, 0.025% Tween-20, and 1 mM DTT) was added to the well containing the dispensed 1200 compounds (the presence of 1152 compounds was already identified when the mixtures were prepared in Example 4) (final compound concentration: 20 nM, final Bcl-2 concentration: 20 μM), and the plate was incubated at 23° C. for 1 hour in the dark. Subsequently, 200 μL of an assay buffer (25 mM Tris-HCl, pH 7.4, 150 mM NaCl, 0.025% Tween-20, and 1 mM DTT) was centrifuged three times at 2000×G at 4° C. for 2 minutes using 96-well MacroSpin column, P-2 Material (Harvard Bioscience, Inc., 74-5655) that had been allowed to swell to condition the 96-well MacroSpin column. Subsequently, 20 μL of the sample thus incubated was added to the 96-well MacroSpin column, P-2 Material after the completion of conditioning, and SEC treatment was performed by centrifugation at 2000×G for 2 minutes. 32 μL of a 1:1 mixed solution of acetonitrile and methanol (LC/MS grade, FUJIFILM Wako Pure Chemical Corp.) was added to a flow-through liquid from SEC, and the mixture was centrifuged at 1800×G at 4° C. for 5 minutes. The supernatant was used as analysis sample ASMS (A). By a similar operation, a sample prepared at 1200 compounds/well and supplemented with only a Tris-HCl buffer containing no Bcl-2 protein was incubated under the same conditions as above, and the same organic solvent as above was added thereto without 96-well MacroSpin column treatment. A supernatant obtained by a centrifugation operation was used as STD (B). Next, by a similar operation, a sample prepared at 1200 compounds/well and supplemented with only a Tris-HCl buffer containing no Bcl-2 protein was incubated under the same conditions as above and treated with 96-well MacroSpin column in the same manner as above, and the same organic solvent as above was added thereto. A supernatant obtained by a centrifugation operation was used as BK (C). These samples were measured by reverse-phase LC/MS.
Then, the samples A, B and C were analyzed for the 1200 compounds using TraceFinder 5.1 (Thermo Fisher Scientific Inc.) and CHANCE Software (in-house), and an ASMS ratio (%) was calculated according to the following expression.
Although m/z of the MS peaks was confirmed down to four decimal places, 0 at the decimal level may be omitted in the description in Table AJ-01. For example, “587.0000” is also referred to as “587”, “587.1000” is also referred to as “587.1”, “587.1200” is also referred to as “587.12”, and “587.1230” is also referred to as “587.123”.

[1] = AS-MS, mixture of 1200 compounds/well
[2] = mixture library of 1200 compounds/well, compounds assigned by expected m/z

T1 sequence (P10415 whole entry): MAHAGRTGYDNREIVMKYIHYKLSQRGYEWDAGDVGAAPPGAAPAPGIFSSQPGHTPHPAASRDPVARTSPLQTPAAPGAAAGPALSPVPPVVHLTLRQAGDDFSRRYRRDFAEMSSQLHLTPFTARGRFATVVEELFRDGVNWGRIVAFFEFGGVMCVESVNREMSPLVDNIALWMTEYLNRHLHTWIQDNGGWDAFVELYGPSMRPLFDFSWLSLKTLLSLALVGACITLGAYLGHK

Compound | ASMS ratio (%) n = 1 [1] | ASMS ratio (%) n = 2 [1] | ASMS ratio (%) n = 2 [2]
4-[4-[[2-[2-(3-Ethoxyphenyl)ethynyl]phenyl]methyl]piperazin-1-yl]-N-propylbenzamide [Compound B1M052-01] | 27.6% | 20.2% | –
4-[4-[[4-(3-Ethoxyphenyl)-3-fluorophenyl]methyl]piperazin-1-yl]-N-propylbenzamide [Compound B1M079-01] | 8.1% | – | –
4-[4-[[4-(3-Ethoxyphenyl)-3-methylphenyl]methyl]piperazin-1-yl]-N-propylbenzamide [Compound B1M058-01] | −1.4% | – | –
4-[4-[[4-(5-Ethoxypyridin-3-yl)-2-ethylphenyl]methyl]piperazin-1-yl]-N-propylbenzamide [Compound B1M075-01] | 77.3% | 46.1% | –
6-[4-[[2-(5-Ethoxypyridin-3-yl)phenyl]methyl]piperazin-1-yl]-N-propylpyridazine-3-carboxamide [Compound B1M043-01] | 2.2% | – | –
CCOc1cncc(-c2cc(C(=O)N3CCN(c4ccc(C(=O)NCC56CC7CC(CC(C7)C5)C6)nn4)CC3)cc(C(C)(C)C)c2)c1 [Compound B1A016-01, N-(1-Adamantylmethyl)-6-[4-[3-tert-butyl-5-(5-ethoxypyridin-3-yl)benzoyl]piperazin-1-yl]pyridazine-3-carboxamide] | – | – | −4. %
CCOc1cccc(-c2cc(CN3CCN(c4ccc(C(=O)NCC56CC7CC(CC(C7)C5)C6)nn4)CC3)cc(OCC)c2)c1 [Compound B1A081-01, N-(1-Adamantylmethyl)-6-[4-[[3-ethoxy-5-(3-ethoxyphenyl)phenyl]methyl]piperazin-1-yl]pyridazine-3-carboxamide] | – | – | −5. %
CCOc1cccc(-c2cc(CN3CCN(c4ccc(C(=O)NCC(F)(F)F)cc4)CC3)cc(OC(F)(F)F)c2)c1 [Compound B1K063-01, 4-[4-[[3-(3-Ethoxyphenyl)-5-(trifluoromethoxy)phenyl]methyl]piperazin-1-yl]-N-(2,2,2-trifluoroethyl)benzamide] | 3.9% | 0.4% | –
CCCNC(=O)c1ccc(N2CCN(C(=O)c3ccc(-c4cccc(OCC)c4)c(C)c3)CC2)nn1 [Compound B1M003-01] | −1.9% | 2.0% | –
CCCNC(=O)c1ccc(N2CCN(C(=O)c3ccc(-c4cncc(OCC)c4)c(C)c3)CC2)nn1 [Compound B1M004-01] | 0.0% | 0.0% | –
CCCNC(=O)c1ccc(N2CCN(C(=O)c3ccc(-c4cncc(OCC)c4)c(F)c3)CC2)nn1 [Compound B1M006-01] | 0.0% | 0.0% | –
CCCNC(=O)c1ccc(N2CCN(C(=O)c3ccccc3C#Cc3cccc(OCC)c3)CC2)nn1 [Compound B1M007-01] | 0.3% | 0.3% | –
CCCNC(=O)c1ccc(N2CCN(C(=O)c3ccccc3C#Cc3cncc(OCC)c3)CC2)nn1 [Compound B1M008-01] | – | 0.0% | –
CCCNC(=O)c1ccc(N2CCN(C(=O)c3cncc(C#Cc4cccc(OCC)c4)c3)CC2)nn1 [Compound B1M009-01] | – | 0.0% | –
CCCNC(=O)c1ccc(N2CCN(C(=O)c3cncc(C#Cc4cncc(OCC)c4)c3)CC2)nn1 [Compound B1M010-01] | 0.0% | 0.0% | –
CCCNC(=O)c1ccc(N2CCN(C(=O)CCc3ccccc3-c3cccc(OCC)c3)CC2)nn1 [Compound B1M011-01] | 18.6% | 7.5% | –

Compound | ASMS ratio (%) n = 1 [1] | ASMS ratio (%) n = 2 [1] | ASMS ratio (%) n = 2 [2]
CCCNC(=O)c1ccc(N2CCN(Cc3cc(OCC)cc(-c4cncc(OCC)c4)c3)CC2)nn1 [Compound B1M012-01, 6-[4-[[3-Ethoxy-5-(5-ethoxypyridin-3-yl)phenyl]methyl]piperazin-1-yl]-N-propylpyridazine-3-carboxamide] | −3.5% | −2.3% | –
CCCNC(=O)c1ccc(N2CCN(C(=O)c3ccc(-c4cccc(OCC)c4)c4ccccc34)CC2)nn1 [Compound B1M013-01] | 2.9% | −1.1% | –
CCCNC(=O)c1ccc(N2CCN(C(=O)c3ccc(-c4cncc(OCC)c4)c4ccccc34)CC2)nn1 [Compound B1M014-01] | 4.1% | 0.4% | –
CCCNC(=O)c1ccc(N2CCN(C(=O)c3cc(-c4cccc(OCC)c4)cc(C(C)(C)C)c3)CC2)nn1 [Compound B1M015-01] | −2.4% | −3.0% | –
CCCNC(=O)c1ccc(N2CCN(C(=O)c3cc(-c4cncc(OCC)c4)cc(C(C)(C)C)c3)CC2)nn1 [Compound B1M016-01] | 0.0% | 0.0% | –
CCCNC(=O)c1ccc(N2CCN(C(=O)c3cc(-c4cccc(OCC)c4)cc(C(F)(F)F)c3)CC2)nn1 [Compound B1M017-01] | −0.1% | 0.3% | –
CCCNC(=O)c1ccc(N2CCN(C(=O)c3cc(-c4cncc(OCC)c4)cc(C(F)(F)F)c3)CC2)nn1 [Compound B1M018-01] | 0.0% | 0.0% | –
CCCNC(=O)c1ccc(N2CCN(C(=O)c3cc(C#Cc4cccc(OCC)c4)cc(C(F)(F)F)c3)CC2)nn1 [Compound B1M019-01] | 1.5% | 0.0% | –
CCCNC(=O)c1ccc(N2CCN(C(=O)c3cc(C#Cc4cncc(OCC)c4)cc(C(F)(F)F)c3)CC2)nn1 [Compound B1M020-01] | 0.0% | 0.0% | –
CCCNC(=O)c1ccc(N2CCN(C(=O)c3cc(-n4cc(-c5cccc(OCC)c5)cn4)cc(C(F)(F)F)c3)CC2)nn1 [Compound B1M021-01] | 0.0% | 0.0% | –
CCCNC(=O)c1ccc(N2CCN(C(=O)c3cc(-n4cc(-c5cncc(OCC)c5)cn4)cc(C(F)(F)F)c3)CC2)nn1 [Compound B1M022-01] | −13.6% | 6.7% | –
CCCNC(=O)c1ccc(N2CCN(C(=O)c3cc(-c4cccc(OCC)c4)cs3)CC2)cc1 [Compound B1M023-01] | 1.4% | −3.0% | –
CCCNC(=O)c1ccc(N2CCN(C(=O)c3cc(-c4cncc(OCC)c4)cs3)CC2)cc1 [Compound B1M024-01] | 0.0% | 0.0% | –
CCCNC(=O)c1ccc(N2CCN(C(=O)c3ccc(-c4cccc(OCC)c4)c(C)c3)CC2)cc1 [Compound B1M025-01] | 3.6% | −1.2% | –
CCCNC(=O)c1ccc(N2CCN(C(=O)c3ccc(-c4cncc(OCC)c4)c(C)c3)CC2)cc1 [Compound B1M026-01] | 0.9% | 0.9% | –
CCCNC(=O)c1ccc(N2CCN(C(=O)c3ccc(-c4cccc(OCC)c4)c(F)c3)CC2)cc1 [Compound B1M027-01] | 1.0% | 0.4% | –
